Consider one compound from publication PMC12559223, “Structural basis of apoptosis induction by the mitochondrial voltage-dependent anion channel” (Nature Communications, 2025).

This test concerns Bak-BclxL complex. Nature of the test: Liposome permeabilization (pore-forming) assay, cBid-activated Bak inhibited by BclxL. In kind it is biochemical, human. As to conditions: increasing concentrations of peptide (10-100 µM); 50 nM BakΔTM, 40 nM cBid, 50 nM BclxLΔTM.

Positions of bridges follow the written chain, without caps; N, C: chain ends. Non-standard residues stand in square brackets, D forms with d. Residues, ends and D or L forms follow the SMILES beside them. S5 = C=CCCC[C@](C)(N)C(=O)O

Take `CC(C)C[C@H](NC(=O)[C@H](CC(=O)O)NC(=O)[C@H](C)NC(=O)[C@@H](N)Cc1ccc(O)cc1)C(=O)N[C@@]1(C)CCCC=CCCC[C@@](C)(C(=O)N[C@@H](CC(=O)O)C(=O)N[C@H](C(=O)N[C@@H](Cc2ccccc2)C(=O)N[C@H](C(=O)N[C@@H](CCCCN)C(=O)NCC(=O)O)[C@@H](C)O)C(C)C)NC(=O)[C@H](C)NC(=O)[C@H](CO)NC(=O)[C@H](CCCCN)NC1=O` [stVDAC1-N] (H-YADL[S5]KSA[S5]DVFTKG-OH; staple 5-9; N-terminus and C-terminus assumed): the “effect on pore-forming activity of BclxL-inhibited Bak (in words)” value is recorded as “concentration-dependent rescue of the pore-forming activity of Bak”.
